Seven compounds from ChEMBL document CHEMBL6120975 (2024) can be followed below.

Data set [1] deals with T1, Voltage-dependent N-type calcium channel subunit alpha-1B (Homo sapiens, UniProt Q00975). As to the kind of experiment: Inhibition of human eGFP tagged Cav2.2 channel transfected in HEK293T cells co-expressed with human GABAB receptor assessed as inhibition of Cav2.2-mediated Ba2+ current at 1 uM by whole-cell patch clamp assay. It counts as cell-based. On the technique in general: The patch-clamp technique gives a direct electrical read-out from membranes.
Target sequence in this assay (Q00975 whole entry, looked up): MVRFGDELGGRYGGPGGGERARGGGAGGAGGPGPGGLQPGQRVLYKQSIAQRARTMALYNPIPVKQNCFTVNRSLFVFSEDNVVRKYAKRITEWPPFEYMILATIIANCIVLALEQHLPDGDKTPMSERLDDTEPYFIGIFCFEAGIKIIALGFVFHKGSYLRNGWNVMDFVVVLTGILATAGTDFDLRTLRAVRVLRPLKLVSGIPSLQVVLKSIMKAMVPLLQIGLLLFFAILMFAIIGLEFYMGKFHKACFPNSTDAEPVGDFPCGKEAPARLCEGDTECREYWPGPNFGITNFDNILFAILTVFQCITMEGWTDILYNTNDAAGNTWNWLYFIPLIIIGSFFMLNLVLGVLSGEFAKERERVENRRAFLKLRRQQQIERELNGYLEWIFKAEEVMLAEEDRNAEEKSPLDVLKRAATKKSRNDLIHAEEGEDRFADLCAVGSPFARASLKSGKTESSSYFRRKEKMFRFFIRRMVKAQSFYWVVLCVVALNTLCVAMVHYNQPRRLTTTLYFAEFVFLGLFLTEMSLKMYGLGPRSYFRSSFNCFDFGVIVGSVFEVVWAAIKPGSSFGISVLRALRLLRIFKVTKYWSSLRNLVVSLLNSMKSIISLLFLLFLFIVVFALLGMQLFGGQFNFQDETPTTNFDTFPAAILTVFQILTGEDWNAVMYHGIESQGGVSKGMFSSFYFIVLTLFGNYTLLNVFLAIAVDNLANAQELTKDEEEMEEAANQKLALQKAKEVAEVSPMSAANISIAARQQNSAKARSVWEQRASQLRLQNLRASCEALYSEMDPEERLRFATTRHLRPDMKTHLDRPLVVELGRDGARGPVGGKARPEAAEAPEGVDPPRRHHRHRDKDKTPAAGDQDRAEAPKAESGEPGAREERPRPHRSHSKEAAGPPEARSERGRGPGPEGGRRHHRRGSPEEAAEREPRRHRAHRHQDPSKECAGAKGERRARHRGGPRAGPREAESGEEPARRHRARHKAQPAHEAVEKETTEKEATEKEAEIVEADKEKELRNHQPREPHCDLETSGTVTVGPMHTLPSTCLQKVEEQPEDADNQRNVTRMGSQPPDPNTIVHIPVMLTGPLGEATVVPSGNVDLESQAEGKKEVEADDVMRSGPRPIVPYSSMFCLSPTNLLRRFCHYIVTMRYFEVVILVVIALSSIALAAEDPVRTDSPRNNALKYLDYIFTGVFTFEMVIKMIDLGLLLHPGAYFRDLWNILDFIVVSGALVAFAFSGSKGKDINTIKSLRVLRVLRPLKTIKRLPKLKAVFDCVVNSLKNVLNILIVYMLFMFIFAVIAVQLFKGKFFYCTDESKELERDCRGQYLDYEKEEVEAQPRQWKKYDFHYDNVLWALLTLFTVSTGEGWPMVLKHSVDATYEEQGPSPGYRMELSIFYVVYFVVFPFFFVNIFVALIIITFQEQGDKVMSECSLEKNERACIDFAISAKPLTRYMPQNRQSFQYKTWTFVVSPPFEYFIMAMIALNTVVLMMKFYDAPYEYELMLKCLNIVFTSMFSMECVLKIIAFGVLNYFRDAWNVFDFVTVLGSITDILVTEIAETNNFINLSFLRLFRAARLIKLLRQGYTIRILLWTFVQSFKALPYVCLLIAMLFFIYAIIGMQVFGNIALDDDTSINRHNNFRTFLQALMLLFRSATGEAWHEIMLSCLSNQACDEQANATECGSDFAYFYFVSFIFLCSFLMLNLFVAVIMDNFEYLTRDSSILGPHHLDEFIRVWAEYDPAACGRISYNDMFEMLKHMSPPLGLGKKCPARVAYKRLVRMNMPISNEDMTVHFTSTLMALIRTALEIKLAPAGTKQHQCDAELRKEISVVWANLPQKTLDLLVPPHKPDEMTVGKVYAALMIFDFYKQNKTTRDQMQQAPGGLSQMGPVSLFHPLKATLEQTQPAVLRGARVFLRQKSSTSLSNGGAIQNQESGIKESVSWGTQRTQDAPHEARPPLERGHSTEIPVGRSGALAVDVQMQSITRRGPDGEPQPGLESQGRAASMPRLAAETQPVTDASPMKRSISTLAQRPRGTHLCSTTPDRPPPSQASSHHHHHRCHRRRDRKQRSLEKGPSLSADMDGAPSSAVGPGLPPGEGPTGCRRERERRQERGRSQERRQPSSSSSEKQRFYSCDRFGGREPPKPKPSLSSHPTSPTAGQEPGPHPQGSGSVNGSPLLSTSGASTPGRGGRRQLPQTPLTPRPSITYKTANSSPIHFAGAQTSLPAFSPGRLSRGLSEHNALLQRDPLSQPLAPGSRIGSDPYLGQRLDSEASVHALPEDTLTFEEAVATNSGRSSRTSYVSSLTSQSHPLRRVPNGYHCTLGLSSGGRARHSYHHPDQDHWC

Data set [2] is described as follows: Stability in human serum measured upto 24 hrs. It counts as ADME, cell-free.
Data set [3] concerns the target T2, Neuronal acetylcholine receptor; alpha9/alpha10 (Homo sapiens) (UniProt Q9UGM1+Q9GZZ6). Description: Inhibition of human alpha9alpha10 nAChR expressed in acetylcholine-induced Xenopus laevis oocytes assessed as inhibition of acetylcholine-induced current at 30 nM incubated for 5 mins by two electrode voltage-clamp assay. The class given is cell-based. Conditions: Oocyte. For orientation: In two-electrode clamp one electrode senses voltage and the other passes current.

For data set [4], the target named is T1, Voltage-dependent N-type calcium channel subunit alpha-1B. As to the kind of experiment: Inhibition of human eGFP tagged Cav2.2 channel transfected in HEK293T cells co-expressed with human GABAB receptor assessed as inhibition of Cav2.2-mediated Ba2+ current at 100 uM by whole-cell patch clamp assay. It counts as cell-based.
Target sequence in this assay (Q00975 whole entry, looked up): as above
The nature of data set [5]: Stability in human serum assessed as parent compound remaining measured after 24 hrs. The class given is ADME, cell-free.
The target of data set [6] is Neuronal acetylcholine receptor; alpha9/alpha10 (Homo sapiens, UniProt Q9GZZ6+Q9UGM1). As to the kind of experiment: Inhibition of human alpha9alpha10 nAChR expressed in acetylcholine-induced Xenopus laevis oocytes assessed as inhibition of acetylcholine-induced current incubated for 5 mins by two electrode voltage-clamp assay. The class given is cell-based, Oocyte.
For data set [7], the system named is Rattus norvegicus. As to the kind of experiment: Antinociceptive activity in Chronic constriction injury rat model assessed as reduction in pain at 250 microg/kg, IM administration and measured after 2 hrs. The class given is functional, organism-based. Conditions: dose 250.0 µg/kg.
Data set [8] addresses Neuronal acetylcholine receptor; alpha3/beta4 (Homo sapiens) (UniProt P30926+P32297). Description: Inhibition of human alpha3beta4 nAChR expressed in acetylcholine-induced Xenopus laevis oocytes assessed as inhibition of acetylcholine-induced current at 100 nM incubated for 5 mins by two electrode voltage-clamp assay. It counts as cell-based. Conditions: Oocyte.
Data set [9] concerns the target T1, Voltage-dependent N-type calcium channel subunit alpha-1B. Description: Inhibition of human eGFP tagged Cav2.2 channel transfected in HEK293T cells co-expressed with human GABAB receptor assessed as inhibition of Cav2.2-mediated Ba2+ current by whole-cell patch clamp assay. It counts as cell-based.
Target sequence in this assay (Q00975 whole entry): as the sequence (Q00975 whole entry, looked up) above
Data set [10] has as its target Neuronal acetylcholine receptor; alpha3/beta2 (Homo sapiens) (UniProt P17787+P32297). Description: Inhibition of human alpha3beta2 nAChR expressed in acetylcholine-induced Xenopus laevis oocytes assessed as inhibition of acetylcholine-induced current at 100 nM incubated for 5 mins by two electrode voltage-clamp assay. It counts as cell-based. The note with it: Oocyte.

The subject of data set [11] is Rattus norvegicus. Description: Antinociception activity in Oxaliplatin-induced cold allodynia in rat model assessed as analgesic effect at 250 microg/kg, iv measured after 1 to 12 hr. The class given is functional, organism-based. Conditions: dose 250.0 µg/kg, time 1-12 hrs.
The target of data set [12] is T2, Neuronal acetylcholine receptor; alpha9/alpha10 (Homo sapiens). As to the kind of experiment: Inhibition of human alpha9alpha10 nAChR expressed in acetylcholine-induced Xenopus laevis oocytes assessed as inhibition of acetylcholine-induced current at 100 nM incubated for 5 mins by two electrode voltage-clamp assay. It counts as cell-based. Conditions: Oocyte.
Data set [13] addresses Neuronal acetylcholine receptor subunit alpha-7 (Homo sapiens, UniProt P36544). As to the kind of experiment: Inhibition of human alpha7 nAChR expressed in acetylcholine-induced Xenopus laevis oocytes assessed as inhibition of acetylcholine-induced current incubated for 5 mins by two electrode voltage-clamp assay. The class given is cell-based, Oocyte.
For data set [14], the target named is Neuronal acetylcholine receptor; alpha4/beta4 (Homo sapiens) (UniProt P30926+P43681). Description: Inhibition of human alpha4beta4 nAChR expressed in acetylcholine-induced Xenopus laevis oocytes assessed as inhibition of acetylcholine-induced current at 100 nM incubated for 5 mins by two electrode voltage-clamp assay. It counts as cell-based. Conditions: Oocyte.

Data set [15] deals with Rattus norvegicus. As to the kind of experiment: Antinociception activity in Oxaliplatin-induced cold allodynia in rat model assessed as analgesic effect at 250 microg/kg, sc measured after 4 to 8 hr. Conditions: dose 250.0 µg/kg, time 4-8 hrs. It counts as functional, organism-based.
The target of data set [16] is Neuronal acetylcholine receptor; alpha4/beta2 (Homo sapiens) (UniProt P17787+P43681). As to the kind of experiment: Inhibition of human alpha4beta2 nAChR expressed in acetylcholine-induced Xenopus laevis oocytes assessed as inhibition of acetylcholine-induced current at 100 nM incubated for 5 mins by two electrode voltage-clamp assay. It counts as cell-based. The note with it: Oocyte.

In data set [17] the test system is Rattus norvegicus. As to the kind of experiment: Antinociception activity in Oxaliplatin-induced cold allodynia in rat model assessed as analgesic effect at 250 microg/kg, sc measured after 1 hr. It counts as functional, organism-based. Conditions: dose 250.0 µg/kg.
Data set [18] addresses T1, Voltage-dependent N-type calcium channel subunit alpha-1B. As to the kind of experiment: Inhibition of human eGFP tagged Cav2.2 channel transfected in HEK293T cells co-expressed with human GABAB receptor assessed as inhibition of Cav2.2-mediated Ba2+ current at 100 uM by whole-cell patch clamp assay relative to control. It counts as cell-based.
Target sequence in this assay (Q00975 whole entry, looked up): as above
Data set [19] in a line: Stability in human plasma assessed as half life. The class given is ADME, cell-free.

Calls of active or inactive are those of the source. The rule behind the calls is not given here. Where a SMILES comes first, the peptide text is derived from it. [ ]: non-standard residue; d: D form. The star is where a group is joined. X3 = NCCOCCOCCOCCOCCOCCOCCOCCOCCCC(=O)*; Stearoyl = CCCCCCCCCCCCCCCCCC(=O)*; Palmitoyl = CCCCCCCCCCCCCCCC(=O)*; X1 = NCCOCCOCCOCCOCCOCCOCCCC(=O)*; X2 = NCCOCCOCCOCCOCCCC(=O)*; Sar = CNCC(=O)O

Chain of Neuronal acetylcholine receptor; alpha9/alpha10 (Q9UGM1 whole entry): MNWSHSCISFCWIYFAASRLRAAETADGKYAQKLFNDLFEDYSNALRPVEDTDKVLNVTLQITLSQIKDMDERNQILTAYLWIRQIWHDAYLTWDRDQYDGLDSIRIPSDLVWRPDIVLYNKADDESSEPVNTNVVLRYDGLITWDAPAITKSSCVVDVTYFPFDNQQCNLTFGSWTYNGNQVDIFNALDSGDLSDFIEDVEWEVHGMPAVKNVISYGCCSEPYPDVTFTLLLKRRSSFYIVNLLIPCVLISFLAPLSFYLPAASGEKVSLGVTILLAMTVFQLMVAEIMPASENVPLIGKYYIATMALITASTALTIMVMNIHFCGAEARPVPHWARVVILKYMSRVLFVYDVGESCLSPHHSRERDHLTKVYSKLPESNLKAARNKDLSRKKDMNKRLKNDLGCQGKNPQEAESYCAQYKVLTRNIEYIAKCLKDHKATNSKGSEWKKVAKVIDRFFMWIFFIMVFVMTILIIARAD
Chain of Neuronal acetylcholine receptor; alpha9/alpha10 (Q9GZZ6 whole entry): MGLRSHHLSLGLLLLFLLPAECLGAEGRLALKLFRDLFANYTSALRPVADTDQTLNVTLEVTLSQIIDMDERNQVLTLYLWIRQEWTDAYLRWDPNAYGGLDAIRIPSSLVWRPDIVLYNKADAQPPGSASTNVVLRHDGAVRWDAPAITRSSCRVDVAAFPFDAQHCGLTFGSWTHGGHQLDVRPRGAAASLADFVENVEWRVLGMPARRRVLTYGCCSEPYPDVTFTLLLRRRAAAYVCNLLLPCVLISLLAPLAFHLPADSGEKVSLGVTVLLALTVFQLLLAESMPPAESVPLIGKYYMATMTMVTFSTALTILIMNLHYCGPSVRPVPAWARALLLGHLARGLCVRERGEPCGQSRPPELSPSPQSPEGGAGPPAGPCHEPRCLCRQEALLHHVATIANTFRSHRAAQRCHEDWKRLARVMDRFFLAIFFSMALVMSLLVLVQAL
Chain of Neuronal acetylcholine receptor subunit alpha-7 (P36544 whole entry): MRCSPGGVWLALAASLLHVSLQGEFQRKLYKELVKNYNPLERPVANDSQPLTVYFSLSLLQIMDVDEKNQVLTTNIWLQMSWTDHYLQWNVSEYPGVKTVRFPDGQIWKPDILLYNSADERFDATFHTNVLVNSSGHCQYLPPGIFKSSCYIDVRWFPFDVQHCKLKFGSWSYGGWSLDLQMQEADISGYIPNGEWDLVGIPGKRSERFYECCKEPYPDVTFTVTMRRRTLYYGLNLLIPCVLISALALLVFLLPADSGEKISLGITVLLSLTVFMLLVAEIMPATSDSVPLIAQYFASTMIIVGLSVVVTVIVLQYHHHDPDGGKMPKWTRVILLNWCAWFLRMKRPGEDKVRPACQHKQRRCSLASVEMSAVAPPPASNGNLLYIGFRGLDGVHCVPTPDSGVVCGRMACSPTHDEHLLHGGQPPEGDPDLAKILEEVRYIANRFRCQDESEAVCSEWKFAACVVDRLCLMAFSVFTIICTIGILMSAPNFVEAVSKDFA

Consider `CCCCCCCCCCCCCCCCCC(=O)NCC(=O)N[C@@H](CCCNC(=N)N)C(=O)N[C@@H](Cc1ccc(O)cc1)C(=O)N[C@@H](CCCNC(=N)N)C(=O)N[C@@H](CO)C(=O)N1CCC[C@H]1C(=O)N[C@@H](Cc1ccc(O)cc1)C(=O)N[C@@H](CC(=O)O)C(=O)N[C@@H](CCCNC(=N)N)C(=O)N[C@@H](CCCNC(=N)N)C(=O)N[C@@H](CCCNC(=N)N)C(=O)N[C@@H](CCCNC(=N)N)C(=O)N[C@@H](Cc1ccc(O)cc1)C(=O)N[C@@H](CCCNC(=N)N)C(=O)N[C@@H](CCCNC(=N)N)C(=O)N[C@H](C(=O)N[C@H](C(=O)N[C@@H](CC(=O)O)C(N)=O)[C@@H](C)O)[C@@H](C)CC` (Stearoyl-GRYRSPYDRRRRYRRITD-NH2), for which the inhibition – broadly, the percentage by which the read-out fell short of the control – is “Active; Compound Showed Weak Inhibitory Activity” in data set [1] and “Active; Compound Showed Minimal Activity” in data set [4]. The Stability entry in data set [2] was “Stable”. Moreover, the inhibition entry in data set [3] is “inactive”.
Regarding `CC[C@H](C)[C@H](NC(=O)[C@H](CCCNC(=N)N)NC(=O)[C@H](CCCNC(=N)N)NC(=O)[C@H](Cc1ccc(O)cc1)NC(=O)[C@H](CCCNC(=N)N)NC(=O)[C@H](CCCNC(=N)N)NC(=O)[C@H](CCCNC(=N)N)NC(=O)[C@H](CCCNC(=N)N)NC(=O)[C@H](CC(=O)O)NC(=O)[C@H](Cc1ccc(O)cc1)NC(=O)[C@@H]1CCCN1C(=O)[C@H](CO)NC(=O)[C@H](CCCNC(=N)N)NC(=O)[C@H](Cc1ccc(O)cc1)NC(=O)[C@H](CCCNC(=N)N)NC(=O)CNC(=O)CCCOCCOCCOCCOCCOCCOCCN)C(=O)N[C@H](C(=O)N[C@@H](CC(=O)O)C(N)=O)[C@@H](C)O` (X1-GRYRSPYDRRRRYRRITD-NH2), the inhibition result in data set [1] is recorded as “Active; Compound Showed Weak Inhibitory Activity”; in data set [4], “Active; Compound Showed Minimal Activity”. In data set [3], the inhibition entry is “Active”. In addition, the amount remaining – broadly, what is left of the initial amount, in per cent – at 24 h in data set [5] was above 80%. Further, the IC50 – broadly, the point on the concentration scale where inhibition reaches its midpoint – in [6] was 15.9 nM. In addition, in the data set with Rattus norvegicus [7], the outcome was inactive.
For `CC[C@H](C)[C@H](NC(=O)[C@H](CCCNC(=N)N)NC(=O)[C@H](CCCNC(=N)N)NC(=O)[C@H](Cc1ccc(O)cc1)NC(=O)[C@H](CCCNC(=N)N)NC(=O)[C@H](CCCNC(=N)N)NC(=O)[C@H](CCCNC(=N)N)NC(=O)[C@H](CCCNC(=N)N)NC(=O)[C@H](CC(=O)O)NC(=O)[C@H](Cc1ccc(O)cc1)NC(=O)[C@@H]1CCCN1C(=O)[C@H](CO)NC(=O)[C@H](CCCNC(=N)N)NC(=O)[C@H](Cc1ccc(O)cc1)NC(=O)[C@H](CCCNC(=N)N)NC(=O)CNC)C(=O)N[C@H](C(=O)N[C@@H](CC(=O)O)C(N)=O)[C@@H](C)O` (H-[Sar]RYRSPYDRRRRYRRITD-NH2), the inhibition result in [8], in data set [10], in [12] and in data set [14] was “inactive” in each case. Also, the IC50 is 7800 nM in [9], 121 nM in [13] and 14.2 nM in [6]. For the same compound, the result in the data set with Rattus norvegicus [11] and in the data set with Rattus norvegicus [15] was Active. The inhibition entry in [3] and in data set [16] was “Active” in each case. The result with Rattus norvegicus [17] was inactive. Further, in data set [18], the inhibition worked out at 100%.
For the compound H-GRYRSPYDRRRRYRRITD-NH2, the half-life (usually the time in which the quantity being followed falls by half) in data set [19] was below 30 min.
On to `CC[C@H](C)[C@H](NC(=O)[C@H](CCCNC(=N)N)NC(=O)[C@H](CCCNC(=N)N)NC(=O)[C@H](Cc1ccc(O)cc1)NC(=O)[C@H](CCCNC(=N)N)NC(=O)[C@H](CCCNC(=N)N)NC(=O)[C@H](CCCNC(=N)N)NC(=O)[C@H](CCCNC(=N)N)NC(=O)[C@H](CC(=O)O)NC(=O)[C@H](Cc1ccc(O)cc1)NC(=O)[C@@H]1CCCN1C(=O)[C@H](CO)NC(=O)[C@H](CCCNC(=N)N)NC(=O)[C@H](Cc1ccc(O)cc1)NC(=O)[C@H](CCCNC(=N)N)NC(=O)CNC(=O)CCCOCCOCCOCCOCCN)C(=O)N[C@H](C(=O)N[C@@H](CC(=O)O)C(N)=O)[C@@H](C)O` (X2-GRYRSPYDRRRRYRRITD-NH2), for which the inhibition result in data set [1] is listed as “Active; Compound Showed Weak Inhibitory Activity”; in data set [4], “Active; Compound Showed Minimal Activity”. Besides, the inhibition result in data set [3] is “Active”. Further, the amount remaining at 24 h in data set [5] was above 80%. Also, the IC50 in data set [6] is 7.8 nM. Besides, the outcome in the data set on Rattus norvegicus [7] was inactive.
Regarding `CCCCCCCCCCCCCCCC(=O)NCC(=O)N[C@@H](CCCNC(=N)N)C(=O)N[C@@H](Cc1ccc(O)cc1)C(=O)N[C@@H](CCCNC(=N)N)C(=O)N[C@@H](CO)C(=O)N1CCC[C@H]1C(=O)N[C@@H](Cc1ccc(O)cc1)C(=O)N[C@@H](CC(=O)O)C(=O)N[C@@H](CCCNC(=N)N)C(=O)N[C@@H](CCCNC(=N)N)C(=O)N[C@@H](CCCNC(=N)N)C(=O)N[C@@H](CCCNC(=N)N)C(=O)N[C@@H](Cc1ccc(O)cc1)C(=O)N[C@@H](CCCNC(=N)N)C(=O)N[C@@H](CCCNC(=N)N)C(=O)N[C@H](C(=O)N[C@H](C(=O)N[C@@H](CC(=O)O)C(N)=O)[C@@H](C)O)[C@@H](C)CC` (Palmitoyl-GRYRSPYDRRRRYRRITD-NH2), the inhibition result in [1] was “Active; Compound Showed Weak Inhibitory Activity”; in [4] it was “Active; Compound Showed Minimal Activity”. In data set [2], the Stability entry was “Stable”. The inhibition result in data set [3] was “inactive”.
For `CC[C@H](C)[C@H](NC(=O)[C@H](CCCNC(=N)N)NC(=O)[C@H](CCCNC(=N)N)NC(=O)[C@H](Cc1ccc(O)cc1)NC(=O)[C@H](CCCNC(=N)N)NC(=O)[C@H](CCCNC(=N)N)NC(=O)[C@H](CCCNC(=N)N)NC(=O)[C@H](CCCNC(=N)N)NC(=O)[C@H](CC(=O)O)NC(=O)[C@H](Cc1ccc(O)cc1)NC(=O)[C@@H]1CCCN1C(=O)[C@H](CO)NC(=O)[C@H](CCCNC(=N)N)NC(=O)[C@H](Cc1ccc(O)cc1)NC(=O)[C@H](CCCNC(=N)N)NC(=O)CNC(=O)CCCOCCOCCOCCOCCOCCOCCOCCOCCN)C(=O)N[C@H](C(=O)N[C@@H](CC(=O)O)C(N)=O)[C@@H](C)O` (X3-GRYRSPYDRRRRYRRITD-NH2), the inhibition entry in data set [1] is on record as “Active; Compound Showed Weak Inhibitory Activity”; in data set [4], “Active; Compound Showed Minimal Activity”. The inhibition result in data set [3] is “Active”. In data set [5], the fraction remaining at 24 h was above 80%. The IC50 in [6] stood at 11.8 nM. Besides, the outcome in the data set on Rattus norvegicus [7] was inactive.
